Earlier results in patent US20070281997A1, “TREATMENT OF HOT FLASHES USING MUSCARINIC RECEPTOR ANTAGONISTS” (priority 2006, published 2007).

Tested on: hot flashes
Conditions: men receiving androgen deprivation therapy; previous reports, pilot studies

SMILES | efficacy to reduce hot flashes
CC(=O)[C@@]1(O)CC[C@H]2[C@@H]3C=C(C)C4=CC(=O)CC[C@]4(C)[C@H]3CC[C@@]21C [megasterol] | efficacious
COc1ccc(C(CN(C)C)C2(O)CCCCC2)cc1 (stereo not drawn) [venlafaxine] | shown efficacy
Fc1ccc([C@@H]2CCNC[C@H]2COc2ccc3c(c2)OCO3)cc1 [paroxetine] | shown efficacy
